Among the data in US20210009564A1, “CALPAIN MODULATORS AND THERAPEUTIC USES THEREOF” (BLADE THERAPERTICS, INC., priority 2018, published 2021) are IC50 values, retold here.

Usually IC50 stands for the concentration at which inhibition is half-maximal.

Bounds are passed on as bounds.

One experiment has as its target T1, Human Calpain 2/NS1 (Homo sapiens, UniProt P17655).
T1 sequence (P17655 1-700): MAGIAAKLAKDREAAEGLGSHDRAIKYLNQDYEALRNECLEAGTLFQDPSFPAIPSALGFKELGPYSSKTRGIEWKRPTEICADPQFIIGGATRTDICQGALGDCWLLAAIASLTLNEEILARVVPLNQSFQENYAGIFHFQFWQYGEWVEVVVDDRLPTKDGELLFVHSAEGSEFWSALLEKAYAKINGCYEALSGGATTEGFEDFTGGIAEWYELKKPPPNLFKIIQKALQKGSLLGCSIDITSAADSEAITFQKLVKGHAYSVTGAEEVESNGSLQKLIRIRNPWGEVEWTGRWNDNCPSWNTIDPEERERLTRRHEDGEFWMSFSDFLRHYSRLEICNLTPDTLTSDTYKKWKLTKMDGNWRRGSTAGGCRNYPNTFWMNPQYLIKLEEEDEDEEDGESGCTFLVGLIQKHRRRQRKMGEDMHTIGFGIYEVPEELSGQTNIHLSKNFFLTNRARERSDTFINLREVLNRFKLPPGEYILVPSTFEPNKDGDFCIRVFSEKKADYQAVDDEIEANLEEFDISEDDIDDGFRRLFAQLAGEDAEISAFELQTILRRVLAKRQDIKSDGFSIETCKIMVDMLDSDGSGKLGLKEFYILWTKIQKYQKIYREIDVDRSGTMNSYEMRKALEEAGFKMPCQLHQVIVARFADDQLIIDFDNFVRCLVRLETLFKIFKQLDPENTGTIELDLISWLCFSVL
T1 sequence (P04632 1-268 partner): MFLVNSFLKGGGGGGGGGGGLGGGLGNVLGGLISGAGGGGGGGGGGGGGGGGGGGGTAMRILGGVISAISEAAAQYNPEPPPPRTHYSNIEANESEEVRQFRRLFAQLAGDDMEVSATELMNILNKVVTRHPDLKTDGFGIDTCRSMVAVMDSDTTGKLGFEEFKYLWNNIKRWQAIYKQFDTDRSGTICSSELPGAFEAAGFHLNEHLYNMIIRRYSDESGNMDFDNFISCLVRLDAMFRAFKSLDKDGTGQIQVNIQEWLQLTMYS
Description: Calpain inhibition, continuous fluorescence (FRET substrate) assay, calpain 2. The format is biochemical. To be noted: SensoLyte 520 FRET substrate, 25C. How it is done:
(§1) Calpain 1, 2, and 9 activity and inhibition thereof was assessed by means of a continuous fluorescence assay. The SensoLyte 520 Calpain substrate (Anaspec Inc) was optimized for detecting calpain activity. This substrate contains an internally quenched 5-FAM/QXLTM 520 FRET pair. Calpains 1, 2, and 9 cleave the FRET substrate into two separate fragments resulting in an increase of 5-FAM fluorescence that is proportional to calpain activity Assays were typically setup in black 384-well plates using automated liquid handling as follows. Calpain assay base buffer typically contains 50 mM Tris, pH 7.5, 100 mM NaCl and 1 mM DTT. Inhibitors were serially diluted in DMSO and used to setup 2× mixtures with calpains in the aforementioned buffer. After incubation at ambient temperature (25C), the reaction was initiated by adding a 2× mix of the fluorescent peptide substrate and CaCl2) (required for in-situ calpain activation) in the same buffer. Reaction progress curve data were typically collected for 10 min using excitation/emission wavelengths of 490 nm/520 nm on SpectraMax i3× or the FLIPR-Tetra plate readers (Molecular Devices Inc). Reaction rates were calculated from progress curve slopes typically over 1-5 min. Dose response curves (rate vs. log inhibitor concentration) were typically fit to a 4-parameter logistic function to extract IC50 values.

Experiment [1] has as its system Calpain activity in SH-SY5Y cells. Description: SH-SY5Y spectrin breakdown product (SBDP-150) western blot assay. As to conditions: Homo sapiens; SH-SY5Y cells, 25 uM A23187, SBDP-150 western blot; read-out: SH-SY5Y Spectrin IC50. The format is cell-based. For orientation: In western blotting, separated proteins are transferred to a membrane and probed.
Another experiment deals with T2, Human Calpain 1/NS1 (Homo sapiens, UniProt P07384).
T2 sequence (P07384 1-714): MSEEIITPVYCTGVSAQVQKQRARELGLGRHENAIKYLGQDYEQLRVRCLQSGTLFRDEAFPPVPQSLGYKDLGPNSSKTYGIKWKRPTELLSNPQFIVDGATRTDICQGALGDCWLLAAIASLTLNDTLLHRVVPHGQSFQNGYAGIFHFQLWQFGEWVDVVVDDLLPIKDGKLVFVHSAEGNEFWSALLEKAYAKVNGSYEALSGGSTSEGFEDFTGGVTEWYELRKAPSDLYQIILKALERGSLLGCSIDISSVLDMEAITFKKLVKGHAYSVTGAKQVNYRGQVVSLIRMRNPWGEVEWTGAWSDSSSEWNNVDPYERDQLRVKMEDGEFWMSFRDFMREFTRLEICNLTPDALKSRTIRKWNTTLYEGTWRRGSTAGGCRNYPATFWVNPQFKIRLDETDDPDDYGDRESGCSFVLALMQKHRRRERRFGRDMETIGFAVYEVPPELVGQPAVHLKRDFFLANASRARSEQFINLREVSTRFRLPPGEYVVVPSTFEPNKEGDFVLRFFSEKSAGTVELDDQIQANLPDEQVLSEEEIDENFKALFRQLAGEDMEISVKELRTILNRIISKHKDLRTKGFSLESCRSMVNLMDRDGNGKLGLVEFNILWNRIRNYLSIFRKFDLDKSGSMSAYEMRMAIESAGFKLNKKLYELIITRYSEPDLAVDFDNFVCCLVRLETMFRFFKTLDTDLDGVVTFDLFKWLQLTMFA
T2 sequence (P04632 1-268 partner): T1 sequence (P04632 1-268 partner)
Put plainly: Calpain inhibition, continuous fluorescence (FRET substrate) assay, calpain 1. It is filed as biochemical. To be noted: SensoLyte 520 FRET substrate, 25C. The procedure: as §1

A further experiment deals with T3, Human Calpain 9/NS1 (Homo sapiens, UniProt O14815).
T3 sequence (O14815 1-690): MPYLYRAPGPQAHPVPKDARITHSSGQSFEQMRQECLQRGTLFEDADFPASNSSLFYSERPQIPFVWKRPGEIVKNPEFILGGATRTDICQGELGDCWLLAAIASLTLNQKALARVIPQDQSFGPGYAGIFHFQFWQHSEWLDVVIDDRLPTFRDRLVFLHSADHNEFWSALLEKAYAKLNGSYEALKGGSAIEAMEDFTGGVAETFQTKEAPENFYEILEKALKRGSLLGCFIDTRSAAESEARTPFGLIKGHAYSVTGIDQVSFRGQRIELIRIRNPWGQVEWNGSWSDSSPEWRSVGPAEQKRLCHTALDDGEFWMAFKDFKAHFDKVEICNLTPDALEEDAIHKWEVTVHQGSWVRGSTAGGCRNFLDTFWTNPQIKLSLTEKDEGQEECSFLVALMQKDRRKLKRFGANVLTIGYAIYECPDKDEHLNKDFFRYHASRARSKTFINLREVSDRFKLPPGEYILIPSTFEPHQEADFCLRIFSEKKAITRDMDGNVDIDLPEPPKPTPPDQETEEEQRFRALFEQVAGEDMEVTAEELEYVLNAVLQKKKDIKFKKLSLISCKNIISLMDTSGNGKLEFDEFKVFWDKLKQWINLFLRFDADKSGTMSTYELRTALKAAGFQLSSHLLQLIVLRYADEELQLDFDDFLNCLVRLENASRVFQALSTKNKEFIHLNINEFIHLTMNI
T3 sequence (P04632 1-268 partner): T1 sequence (P04632 1-268 partner)
Description: Calpain inhibition, continuous fluorescence (FRET substrate) assay, calpain 9. It is filed as biochemical. As to conditions: SensoLyte 520 FRET substrate, 25C. How it is done: as §1

Experiment [2] deals with Calpain activity in SH-SY5Y cells. Put plainly: SH-SY5Y Suc-LLVY-AMC fluorescence assay. It is filed as cell-based. As to conditions: Homo sapiens; SH-SY5Y cells, 100 uM Suc-LLVY-AMC; read-out: SH-SY5Y + AMC IC50.

With `Cn1cc(C(=O)NC(Cc2ccccc2)C(=O)C(N)=O)c(-n2cnc3cc(F)ccc32)n1` (stereo not drawn) [Compound 48, N-(4-AMINO-3,4-DIOXO-1-PHENYLBUTAN-2-YL)-3-(5-FLUORO-1H-BENZO[D]IMIDAZOL-1-YL)-1-METHYL-1H-PYRAZOLE-4-CARBOXAMIDE], the IC50 was below 3 µM against Human Calpain 2/NS1; below 10 µM in experiment [1]; below 3 µM against Human Calpain 1/NS1; below 3 µM against Human Calpain 9/NS1; 10 to 25 µM in experiment [2].
Consider `COc1cc2nccc(-c3nn(C)cc3C(=O)NC(Cc3ccccc3)C(=O)C(N)=O)c2cc1OC` (stereo not drawn) [Compound 37, N-(4-AMINO-3,4-DIOXO-1-PHENYLBUTAN-2-YL)-3-(6,7-DIMETHOXYQUINOLIN-4-YL)-1-METHYL-1H-PYRAZOLE-4-CARBOXAMIDE], for which the IC50 against Human Calpain 2/NS1 is below 3 µM; in experiment [1], above 25 µM; on Human Calpain 1/NS1, below 3 µM; against Human Calpain 9/NS1, below 3 µM; in experiment [2], above 25 µM.
For the molecule `Cn1cc(C(=O)NC(Cc2ccccc2)C(=O)C(N)=O)c(-c2cccc3ccsc23)n1` (stereo not drawn) [Compound 101, N-(4-AMINO-3,4-DIOXO-1-PHENYLBUTAN-2-YL)-3-(BENZO[b]THIOPHEN-7-YL)-1-METHYL-1H-PYRAZOLE-4-CARBOXAMIDE], the IC50 at Human Calpain 2/NS1 is below 3 µM; in experiment [1], below 10 µM; on Human Calpain 1/NS1 it was below 3 µM; at Human Calpain 9/NS1 it was below 3 µM; in experiment [2] it was 10 to 25 µM.
As to `O=C(NC(Cc1ccccc1)C(=O)c1nc[nH]n1)c1nsnc1-c1ccccc1` (stereo not drawn) [Compound 104, N-(1-OXO-3-PHENYL-1-(H-1,2,4-TRIAZOL-3-YL)PROPAN-2-YL)-4-PHENYL-1,2,5-THIADIAZOLE-3-CARBOXAMIDE], the IC50 at Human Calpain 2/NS1 is above 10 µM; in experiment [1] it was above 25 µM; against Human Calpain 1/NS1, above 10 µM; on Human Calpain 9/NS1, above 10 µM; in experiment [2], above 25 µM.
Regarding `NC(=O)C(=O)C(Cc1ccccc1)NC(=O)c1cn(C(F)F)nc1-c1coc(Cl)c1` (stereo not drawn) [Compound 21, N-(4-AMINO-3,4-DIOXO-1-PHENYLBUTAN-2-YL)-3-(5-CHLOROFURAN-3-YL)-1-(DIFLUOROMETHYL)-1H-PYRAZOLE-4-CARBOXAMIDE], the IC50 against Human Calpain 2/NS1 is below 3 µM; in experiment [1], below 10 µM; at Human Calpain 1/NS1, below 3 µM; against Human Calpain 9/NS1 it was below 3 µM; in experiment [2], below 10 µM.
Regarding `Cc1nc(-c2cccc3ccccc23)c(C(=O)NC(Cc2ccccc2)C(=O)C(N)=O)o1` (stereo not drawn) [Compound 58, N-(4-AMINO-3,4-DIOXO-1-PHENYLBUTAN-2-YL)-2-METHYL-4-(NAPHTHALEN-1-YL)OXAZOLE-5-CARBOXAMIDE], the IC50 is below 3 µM against Human Calpain 2/NS1; below 10 µM in experiment [1]; below 3 µM on Human Calpain 1/NS1; below 3 µM on Human Calpain 9/NS1; below 10 µM in experiment [2].
As for `Cn1cc(C(=O)NC(Cc2ccccc2)C(=O)C(N)=O)c(-c2nccc3ccccc23)n1` (stereo not drawn) [Compound 10, N-(4-AMINO-3,4-DIOXO-1-PHENYLBUTAN-2-YL)-3-(ISOQUINOLIN-1-YL)-1-METHYL-1H-PYRAZOLE-4-CARBOXAMIDE], the IC50 was below 3 µM against Human Calpain 2/NS1; above 25 µM in experiment [1]; 3 to 10 µM at Human Calpain 1/NS1; below 3 µM on Human Calpain 9/NS1; above 25 µM in experiment [2].
As for `Cn1cc(C(=O)NC(Cc2ccccc2)C(=O)C(N)=O)c(-c2cnc3ccccc3n2)n1` (stereo not drawn) [Compound 13, N-(4-AMINO-3,4-DIOXO-1-PHENYLBUTAN-2-YL)-1-METHYL-3-(QUINOXALIN-2-YL)-1H-PYRAZOLE-4-CARBOXAMIDE], the IC50 against Human Calpain 2/NS1 is below 3 µM; in experiment [1], above 25 µM; on Human Calpain 1/NS1, below 3 µM; against Human Calpain 9/NS1, below 3 µM; in experiment [2], above 25 µM.
Consider `Cc1nc(-c2ccccc2F)c(C(=O)NC(Cc2cccc(Cl)c2)C(=O)C(N)=O)o1` (stereo not drawn) [Compound 89, N-(4-AMINO-1-(3-CHLOROPHENYL)-3,4-DIOXOBUTAN-2-YL)-4-(2-FLUOROPHENYL)-2-METHYLOXAZOLE-5-CARBOXAMIDE], for which the IC50 against Human Calpain 2/NS1 is below 3 µM; in experiment [1] it was below 10 µM; against Human Calpain 1/NS1, below 3 µM; at Human Calpain 9/NS1, below 3 µM; in experiment [2], below 10 µM.
For the molecule `Cc1nc(-c2c(F)cccc2F)c(C(=O)NC(Cc2ccccc2)C(=O)C(N)=O)o1` (stereo not drawn) [Compound 76, N-(4-AMINO-3,4-DIOXO-1-PHENYLBUTAN-2-YL)-4-(2,6-DIFLUOROPHENYL)-2-METHYLOXAZOLE-5-CARBOXAMIDE], the IC50 on Human Calpain 2/NS1 was below 3 µM; in experiment [1] it was 10 to 25 µM; on Human Calpain 1/NS1, below 3 µM; at Human Calpain 9/NS1, below 3 µM.
With `COc1cccc(-c2nc(C)oc2C(=O)NC(Cc2ccccc2)C(=O)C(N)=O)c1F` (stereo not drawn) [Compound 75, N-(4-AMINO-3,4-DIOXO-1-PHENYLBUTAN-2-YL)-4-(2-FLUORO-3-METHOXYPHENYL)-2-METHYLOXAZOLE-5-CARBOXAMIDE], the IC50 against Human Calpain 2/NS1 was below 3 µM; in experiment [1] it was 10 to 25 µM; on Human Calpain 1/NS1, below 3 µM; against Human Calpain 9/NS1, below 3 µM.
As to `Cn1cc2cccc(-c3nn(C(F)F)cc3C(=O)NC(Cc3ccccc3)C(=O)C(N)=O)c2n1` (stereo not drawn) [Compound 77, N-(4-AMINO-3,4-DIOXO-1-PHENYLBUTAN-2-YL)-1-(DIFLUOROMETHYL)-3-(2-METHYL-2H-INDAZOL-7-YL)-1H-PYRAZOLE-4-CARBOXAMIDE], the IC50 was below 3 µM on Human Calpain 2/NS1, 10 to 25 µM in experiment [1], below 3 µM against Human Calpain 1/NS1 and below 3 µM on Human Calpain 9/NS1.
